Experiments:
[1] = tested on: AMPK substrate, acetyl-CoA carboxylase (ACC); experiment: Western blot of pACC / total ACC in U2OS Flp-In T-REx lysates; format: cell-based; conditions: varying concentrations
Procedure: U2OS Flp-In T-REx cells were seeded at 100 K in a 96-well plate and left overnight at 37 C in DMEM GlutaMAX (Thermo Fisher Scientific) supplemented with 10% (vol/vol) FBS and 100 U/ml penicillin G, and 100 μg/ml streptomycin. Cells were treated for 1 h with varying concentrations of Lusianthridin in media lacking FBS and then cells were lysed in 50 μl of Cisbio lysis buffer #1 supplemented with blocking solution as per the manufacturer's protocol (Cisbio). Cells were lysed for 30 mins at room temperature before 16 μl of lysate was incubated with 4 μl of the HTRF antibodies (1:40 dilution of the acceptor and donor (p)ACC antibodies, as per the manufacturers protocol). Lysates were incubated overnight with the antibodies before 665 nm/620 nm ratio was determined using a MolecularDevices i3 plate reader (with a HTRF cartridge add-on). For western blot analysis, SDS-sample buffer was added to the remainder of the lysate, denatured at 95 C and then subjected to western blot analysis with phospho-specific and total ACC antibodies (Cell Signalling). Bands were visualized by incubating with Li-Cor secondary antibody and scanned on a Li-Cor Odyssey machine.

primary hepatocytes = experiment: Lipogenesis ([1-14C]-acetate incorporation into fatty acids) in primary hepatocytes; format: cell-based, mouse; conditions: 1 h at 37 C, varying concentrations
Procedure: Hepatocyte isolation: The liver was first perfused with 50 ml perfusion buffer (Krebs-Hepes buffer with […] EDTA), followed with 50 ml collagenase A buffer (Krebs-Hepes buffer with 5 mM CaCl2 and 0.5 mg/ml collagenase). […] Hepatocytes were left to attach (3-4 h) and cultured overnight in M199 supplemented with antibiotics and 100 nM dexamethasone. Cells were used for experiments the following morning. For primary hepatocyte isolation see Example 4. For lipogenesis measurements in primary hepatocytes, cells were seeded at 600 K cells per well in a 6-well plate overnight. Media was replaced with fresh M199 media alone for 2 hours prior to incubation with varying concentrations of Lusianthridin for 1 h at 37 C, in the presence of [1-^14C]-acetate. The incorporation of [^14C] into fatty acids was determined in the lower organic layer after separation from the aqueous phase. […] Lipogenesis is controlled by the AMPK substrate ACC, and phosphorylation and inhibition of ACC by AMPK, leads to a decrease in lipogenesis. Lipogenesis was measured in primary hepatocytes by determining the incorporation of ^14C-labelled acetate into fatty acids. Lipogenesis was monitored in the presence or absence of varying concentrations of Lusianthridin for 1 h at 37 C. […] This observation is consistent with its ability to activate AMPK in hepatocytes, which leads to the phosphorylation and inhibition of ACC.

AMPKα1β1γ1 (111) = target: T1, AMPKα1β1γ1 (111) (Homo sapiens, UniProt P54619+Q13131+Q9Y478); experiment: AMPK in vitro activity assay (HTRF-KinEASE), α1-containing complex; format: biochemical; conditions: fold activation vs complex without compound
T1 construct: His; made in house; host or cells: bacteria
T1 sequence (Q13131 whole entry): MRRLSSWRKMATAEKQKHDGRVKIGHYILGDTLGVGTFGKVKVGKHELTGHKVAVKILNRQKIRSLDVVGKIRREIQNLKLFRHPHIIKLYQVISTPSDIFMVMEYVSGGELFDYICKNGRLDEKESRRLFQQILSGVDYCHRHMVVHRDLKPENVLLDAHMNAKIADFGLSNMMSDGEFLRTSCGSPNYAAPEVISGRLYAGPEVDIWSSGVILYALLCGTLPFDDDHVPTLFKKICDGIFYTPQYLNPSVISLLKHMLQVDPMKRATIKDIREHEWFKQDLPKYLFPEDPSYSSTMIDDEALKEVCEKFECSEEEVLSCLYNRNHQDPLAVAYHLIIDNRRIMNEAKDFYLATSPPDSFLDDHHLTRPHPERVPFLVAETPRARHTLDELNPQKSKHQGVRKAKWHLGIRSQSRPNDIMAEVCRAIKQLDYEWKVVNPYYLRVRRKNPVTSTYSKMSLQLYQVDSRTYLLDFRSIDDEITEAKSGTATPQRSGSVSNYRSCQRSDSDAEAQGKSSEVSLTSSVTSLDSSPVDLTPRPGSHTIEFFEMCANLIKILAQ
T1 sequence (Q9Y478 whole entry): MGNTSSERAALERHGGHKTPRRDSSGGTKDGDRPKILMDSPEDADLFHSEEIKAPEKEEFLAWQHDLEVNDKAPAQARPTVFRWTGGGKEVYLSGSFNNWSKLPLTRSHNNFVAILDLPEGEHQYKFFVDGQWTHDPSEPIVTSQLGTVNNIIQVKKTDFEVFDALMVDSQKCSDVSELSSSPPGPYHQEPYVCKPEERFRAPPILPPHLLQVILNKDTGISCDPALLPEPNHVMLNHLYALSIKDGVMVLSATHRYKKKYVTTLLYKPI
T1 sequence (P54619 whole entry): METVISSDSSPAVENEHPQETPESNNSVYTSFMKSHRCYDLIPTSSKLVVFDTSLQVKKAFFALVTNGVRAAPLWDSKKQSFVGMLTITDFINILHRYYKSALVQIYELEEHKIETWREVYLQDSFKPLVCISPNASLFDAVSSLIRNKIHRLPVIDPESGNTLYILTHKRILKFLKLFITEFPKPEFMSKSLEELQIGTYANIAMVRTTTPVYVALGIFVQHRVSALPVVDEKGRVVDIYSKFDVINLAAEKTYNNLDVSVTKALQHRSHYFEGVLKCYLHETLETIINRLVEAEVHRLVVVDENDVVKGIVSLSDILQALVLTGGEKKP
Procedure: Lusianthridin (CAS 87530-30-1) was isolated from Thunia alba fruit. It was sourced from Analyticon (NP-012362). The plant was purchased through Analyticon's biomaterial supplier in 2003. The country of origin is Nepal. The AMPK heterotrimers were expressed in bacteria and purified through the His-α subunit by nickel purification. AMPK complexes were purified through gel filtration and phosphorylated by incubation with CaMKKβ, and further purified with a final gel filtration purification step. Phosphorylated purified AMPK was incubated with varying concentrations of ligand for 30 mins using substrate and reagents from the HTRF-KinEASE Cisbio assay kit (STK S1 Kit). Phosphorylation of the substrate was measured by incubating with donor and acceptor antibodies for 2 h at room temperature as per the manufacturer's protocol (and Coulerie et al., (2016) PMID: 27792327) and phosphorylated peptide detected by performing HTRF. The 665 nm/620 nm ratio was determined and the results are plotted as fold activation compared to the respective AMPK complex without any compound.

[2] = tested on: AMPK β1 S108A mutant (phosphorylation of ACC); experiment: pACC (HTRF and western blot) in AMPKβ1/β2 double knockout U2-OS Flp-In T-Rex cells stably expressing β1 S108A mutant; format: cell-based, human
Text: AMPKβ1/β2 double knockout U2-OS Flp-In™ T-Rex™ cell lines were generated by Horizon Discovery (Cambridge, UK). Cells were genotyped and analysed by western blotting to confirm that there was a complete knockout of AMPKβ1/β2. We took these AMPKβ1/β2 double knockout cells, and re-introduced the expression of human β1 wild-type (WT) or a β1 Serine 108 to alanine mutation (S108A). This was achieved using the Flp-In™ system (Invitrogen) present in this cell line and stable cells expressing β1 WT or a β1 S108A mutant were generated according to the manufacturers' protocols. Re-expression of the β1 subunit was confirmed by western blot analysis.
Cells stably expressing β1 WT or a β1 S108A mutant were treated with varying concentrations of Lusianthridin and subjected to the pACC HTRF (Cisbio) assay or western blot analysis to determine phosphorylation of the AMPK substrate, ACC, in cells lysates. Western blots were quantified using the LI-COR odyssey system and shown as the ratio of the antibody signal from pACC divided by total ACC.

C2C12 AMPKα1α2−/− cells = experiment: Glucose uptake (3H-2-deoxyglucose) in differentiated C2C12 AMPKα1α2−/− cells; format: cell-based, murine; conditions: 30 or 100 μM Lusianthridin, 300 nM Insulin, 1 h at 37° C
Text: C2C12 AMPK α1α2 double knockout cell lines were generated by transient transfection of wild type cells with plasmids containing Cas9 enzyme linked to green fluorescent protein expression and Cas9 guide RNA sequences targeting the murine AMPK α1 subunit (sc-430618, SantaCruz) and the murine AMPK α2 subunit (sc-430803, SantaCruz). Cells positive for green fluorescent protein expression were single cell sorted by flow cytometry into 96-well plates containing growth medium and analysed for loss of AMPK signaling following expansion of the clones.
Differentiated C2C12 AMPKα1α2+/+ and AMPKα1α2−/− cells were treated with either vehicle (0.2% DMSO), 30 μM or 100 μM Lusianthridin for 1 h at 37° C. […] Finally, differentiated C2C12 AMPKα1α2+/+ and AMPKα1α2−/− cells were treated with either vehicle (0.2% DMSO) or 100 μM Lusianthridin in the presence or absence of 15 nM Wortmanin for 1 h at 37° C. For the Wortmanin experiments, differentiated C2C12 cells were pre-incubated with DMSO or Wortmanin for 1 h prior to treatment.
Glucose uptake was determined by monitoring the uptake of 3H-2-deoxyglucose into cells. C2C12 AMPKα1α2+/+ and AMPKα1α2−/− cells were maintained in DMEM GlutaMAX supplemented with 20% (vol/vol) FBS and 100 U/ml penicillin G, and 100 μg/ml streptomycin. […] Cells were lysed and the quantity of ^3H determined in these samples using a scintillation counter.

COc1cc(O)c2c(c1)CCc1cc(O)ccc1-2 [Lusianthridin, 7-Methoxy-9,10-dihydrophenanthrene-2,5-diol] was tested, and the “phosphorylation of ACC by western blot (AMPK activation in cells)” value [1] was “activates AMPK in cells”, the “rate of lipogenesis (DPM per μg of protein)” value (primary hepatocytes) was “inhibit lipogenesis in a dose-dependent manner” and the “activation of bacterially-expressed AMPKα1β1γ1 complexes” value (AMPKα1β1γ1 (111)) was “Activates”. For the same molecule, the “phosphorylation of ACC (western blot)” value [2] was “did not increase phosphorylation of ACC”, the “pACC (HTRF assay)” value ([2]; varying concentrations, 30 mins at 37 C) was “did not increase pACC” and the “glucose uptake (fold change relative to control)” value (C2C12 AMPKα1α2−/− cells) was “abolished”.

Reference: patent publication US11583507B2, “Direct AMPK activator compounds” (SOCIETE DES PRODUITS NESTLE S.A., priority 2018, dated 2023)
